Test results reported in patent publication US20140206624A1, “TREATMENT OF LEUKEMIA” (THE BRIGHAM AND WOMEN'S HOSPITAL, INC., priority 2011, published 2014).

How the values were obtained:
Type in all cases: in vivo, mouse
[1] = test system: leukemia-initiating cell (LIC); experiment: Limited dilution assay of LIC function in tertiary recipients
Description: Using the same experimental set-up described in panels G leukemia BM cells Saline (MLL-AF9; FoxO1/3/4^+/+, panel H) versus pI-pC (MLL-AF9; FoxO1/3/4^Δ/Δ, panel I) were by isolated by flow cytometry and subsequently transplanted into tertiary recipients at various cell numbers: 300 (n=6), 3,000 (n=6), 30,000 (n=4) and 300,000 (n=4). Animals were then monitored weekly and euthanized upon presentation of external (moribund) and internal (e.g. WBC) signs of AML. The LIC frequencies of each condition are located in the bottom left corner (H. LICfreq^+/+=1:20,688 and I. LICfreq^Δ/Δ=1: 269,310).
As described in FIG. 5, MLL-AF9-induced AML was generated in a FoxO1/3/4^floxed; Mx1-Cre+ genetic background that was subsequently transplanted into secondary mice. Fourteen days post-transplant, secondary recipients were administered with saline or pI-pC and monitored for the development of AML (FIG. 5). BM cells recovered from saline (Ctrl) and pI-pC treated mice that succumbed to AML were then transplanted into tertiary recipients and evaluated for the development of AML (p=0.0061; n=8).
Log-Rank (Mantel-Cox) test was used to determine p values for all Kaplan-Meier survival curve analyses. Unpaired, two-tailed student's t tests were used for all analyses comparing two experimental groups. Poisson statistics was used to determine the leukemia-initiating cell frequency in vivo in FIGS. 9H and 9I as well as in vitro in FIGS. 4E and 4F.
To test whether loss of FoxO1/3/4 also diminished LIC function, a limited dilution assay was performed for leukemia cells immediately following FoxO1/3/4 deletion. Briefly, equal numbers of leukemic BM cells were recovered from FoxO1/3/4^floxed; Mx1-Cre+; MLL-AF9 mice seven days following pI-pC or saline treatment. Recipient mice were then injected with 300, 3,000, 30,000 or 300,000 cells of each condition. Ninety days following transplantation, 100%, 75% and 17% of mice that received 300,000, 30,000 or 3,000 cells, respectively, from saline-treated FoxO1/3/4^floxed; Mx1-Cre+; MLL-AF9 succumbed to AML corresponding to a LIC frequency of 1:20,688 (FIG. 9H). In contrast, 75% of mice transplanted with 300,000 pI-pC-treated FoxO1/3/4^floxed; Mx1-Cre+; MLL-AF9 donor cells developed AML whereas 100% of mice from each other cell dose were alive at day 90.

[2] = test system: c-Jun, FoxO3 phosphorylation; experiment: Western blot of BM cells from mice that succumbed to AML; conditions: pI-pC-treated Mx1-Cre+ mice that died of AML despite deletion of FoxO1/3/4
Description: BM cells recovered from mice that succumbed to control or myrAKT-expressing MLL-AF9-induced AML (refer to FIG. 10G) were subjected to western blot with antibodies that specifically recognize AKT, Tubulin or the phosphorylated forms of FoxO3 (pFoxO3^S256) c-JUN (pc-JUN^S63).
BM cells recovered from mice that succumbed MLL-AF9-induced AML (refer to FIG. 5F) that were wild type or null for FoxO1/3/4 were subjected to western blot with antibodies that specifically recognize AKT, Tubulin or the phosphorylated forms of FoxO3 (pFoxO3^S256) c-JUN (pc-JUN^S63).
Based on the observation that the JNK/c-JUN signaling pathway is activated in response to FOXO inhibition (directly or via AKT activation), whether the activation of this pathway was also initiated in vivo was examined. To this end, the phosphorylation status of c-Jun in BM cells of saline and pI-pC-treated FoxO1/3/4^floxed; Mx1-Cre+; MLL-AF9 mice (FIG. 9F) that developed overt AML was examined. Enhanced pc-Jun^Ser63 in 75% of mice that died of AML despite efficient deletion of FoxO1/3/4 (FIGS. 13A and 10C-10F) was observed. The phosphorylation status of BM cells derived from control and myrAKT-expressing leukemic mice from FIG. 10H was evaluated.

FoxO1, FoxO3, FoxO4 = experiment: Excision efficiency (Real Time PCR, western blot) in BM
Description: RNA recovered from BM was converted to cDNA and then analyzed for FoxO1 (FIG. 10C.), FoxO3 (FIG. 10D.), FoxO4 (FIG. 10E.) and GAPDH expression by quantitative Real Time PCR. Each FoxO gene expression is normalized with GAPDH expression.
BM recovered from one saline-treated FoxO1/3/4^floxed; MLL-AF9; Mx1-Cre+ mouse (lane 1) five FoxO1/3/4^floxed; MLL-AF9; Mx1-Cre+ mice treated with pI-pC (lanes 2-6) that succumbed to AML-related death were subjected to Western blot with FoxO3 (75D8) and Tubulin antibodies.

polyinosine-polycytidyline [pI-pC]
increase in median survival ([1]; 300,000 donor cells, pI-pC vs saline-treated): ~2 fold
median survival ([1]; 300,000 pI-pC-treated donor cells, n=4): 82 days
mice that developed AML ([1]; 300,000 pI-pC-treated donor cells, ninety days following transplantation): 75%
mice alive at day 90 ([1]; each other cell dose (300, 3,000, 30,000) of pI-pC-treated donor cells): 100%
LIC frequency lower than the control group ([1]; pI-pC vs saline): 13 fold
latency in recipients of donor cells from mice of FIG. 9F ([1]; pI-pC vs saline-treated donors (FIG. 10B)): extended latency
mice with enhanced pc-Jun^Ser63 [2]: 75%
FOXO1/3/4 expression (quantitative Real Time PCR, normalized with GAPDH) (FoxO1, FoxO3, FoxO4; BM RNA): suppression of FOXO1/3/4 expression
FOXO3 (Western blot) (FoxO1, FoxO3, FoxO4; BM of Mx1-Cre+ mice that succumbed to AML): below detection
